Reference: ChEMBL document CHEMBL3886169, “Oxazine derivatives and their use in the treatment of disease” (2015)

What was measured:
Beta-secretase 2 = molecular target: T1, Beta-secretase 2 (Homo sapiens, UniProt Q9Y5Z0); assay: Fluorescence increase was followed for 15 min, in 1 minute's intervals. The fluorescence/time slopes were calculated from duplicate wells and from wells without inhibitor and the IC50 values were calculated using a logistic 4-parameter model.
T1 sequence (Q9Y5Z0 whole entry): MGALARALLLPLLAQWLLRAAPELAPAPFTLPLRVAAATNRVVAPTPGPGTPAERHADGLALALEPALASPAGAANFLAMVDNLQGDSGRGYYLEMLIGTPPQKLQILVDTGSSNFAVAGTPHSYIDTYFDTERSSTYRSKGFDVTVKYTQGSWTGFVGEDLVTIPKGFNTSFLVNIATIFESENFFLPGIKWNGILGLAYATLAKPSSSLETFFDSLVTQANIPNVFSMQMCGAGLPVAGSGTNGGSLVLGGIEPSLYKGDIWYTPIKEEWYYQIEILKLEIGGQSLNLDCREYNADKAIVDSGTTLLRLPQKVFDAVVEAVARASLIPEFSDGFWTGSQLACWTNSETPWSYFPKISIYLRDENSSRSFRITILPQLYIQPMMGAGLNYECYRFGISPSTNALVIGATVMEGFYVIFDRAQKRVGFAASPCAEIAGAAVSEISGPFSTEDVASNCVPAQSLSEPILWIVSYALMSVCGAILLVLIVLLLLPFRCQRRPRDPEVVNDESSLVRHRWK

Beta-secretase 1 = Beta-secretase 1 (Homo sapiens, UniProt P56817); assay: Inhibition Assay: Recombinant BACE-1 (extracellular domain, expressed in baculovirus and purified using standard methods) at 0.1 to 1 nM concentrations is incubated with the test compound at various concentrations for 1 hour at room temperature in 100 mM acetate buffer, pH 4.5, containing 0.1% CHAPS. Activity was measured using a final concentration of 3 μM of the fluorescence-quenched substrate Q-C(HSO3)-Ile-Asp-Leu-Ala-Val-Leu-Asp-HN-CH2-CH2-Mca, where Q=2-nitro-5-amino benzoic acid and Mca=7-methoxy-4-coumarinyl acetic acid. Catalytic turnover was monitored in a Spectramax Gemini fluorescence plate reader (Molecular Devices) in black 96-well microplates using excitation/emission wavelength of 325 nm and 400 nm, respectively. Fluorescence increase was followed for 15 min, in 1 minute's intervals. The fluorescence/time slopes were calculated from duplicate wells and from wells without inhibitor and the IC50 values were calculated using a logistic 4-parameter model.
Chain of Beta-secretase 1 (P56817 whole entry, the tested form may be a part): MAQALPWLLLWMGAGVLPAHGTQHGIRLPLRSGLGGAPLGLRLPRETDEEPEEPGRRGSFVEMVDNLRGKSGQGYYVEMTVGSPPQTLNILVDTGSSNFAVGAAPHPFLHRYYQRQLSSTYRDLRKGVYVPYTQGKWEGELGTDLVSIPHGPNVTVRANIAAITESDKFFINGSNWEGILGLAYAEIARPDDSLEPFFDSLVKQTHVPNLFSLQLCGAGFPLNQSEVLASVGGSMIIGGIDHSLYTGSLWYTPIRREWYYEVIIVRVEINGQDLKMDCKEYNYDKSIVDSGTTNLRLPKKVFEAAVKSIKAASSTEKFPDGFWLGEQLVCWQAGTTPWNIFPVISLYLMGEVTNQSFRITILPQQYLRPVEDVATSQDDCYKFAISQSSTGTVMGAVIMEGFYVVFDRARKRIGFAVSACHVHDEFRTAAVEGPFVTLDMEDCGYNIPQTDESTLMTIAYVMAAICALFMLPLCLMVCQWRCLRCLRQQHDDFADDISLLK

IC50 (Beta-secretase 2): 93 nM
IC50 (Beta-secretase 1): 270 nM
SMILES: COc1cnc(C(=O)Nc2ccc(F)c([C@@]3(C)N=C(N)OCC3(F)F)n2)c(C)c1
